Results as given in PMC12044458 (ACS Omega, 2025).

Key:
[1] = tested on: Poly(I:C) Na^+ (RNA, polymer, hypoxanthine (inosine) in place of every G of strand 1 (polyinosinic acid)) G/C; test: UV melting; conditions: PBS, 0 mM Mg2+, derived from two Tm (64 and 65), compound concentration not in material, per base
[2] = tested on: Poly(I:C) HMW (RNA, polymer, hypoxanthine (inosine) in place of every G of strand 1 (polyinosinic acid)) G/C; test: UV melting; conditions: PBS, 0 mM Mg2+, derived from two Tm (67 and 67), compound concentration not in material, per base

Q: For `CN(C)[C@@H]1C(=O)C(C(N)=O)=C(O)[C@@]2(O)C(=O)C3=C(O)c4c(O)cccc4[C@@](C)(O)[C@H]3C[C@@H]12`, which “melting temperature shift (ΔTm)” value [1] is on record?
A: Its value is -1 °C.

Q: What about the “melting temperature shift (ΔTm)” value [2] of the same compound?
A: The value was 0 °C.
